According to patent publication US5391540A, “Substituted pyridine compounds” (Rohm and Haas Company, priority 1993, dated 1995):

Key:
Format in all cases: in vivo
[1] = system: Dobr; assay: plant injury after spraying emerged plants (Table D)
Source text: Topsoil (silt loam) is sieved through a screen having 1.27 cm openings. In some of the tests the soil was mixed with fertilizer (1225 g/cu. m of 12/5/9 containing isobutylidene diurea), while in other tests the fertilizer was omitted. This mixture is steam sterilized and then placed in aluminum pans 6.985 cm deep having ten holes in the bottom each 0.635 cm in diameter. The soil mixture is compacted to a depth of 1.27 cm. from the top of the pan. A predetermined number of seeds of each of several dicotyledonous and monocotyledonous annual plant species and/or vegetative propagules for the perennial plant species are placed on the soil and pressed into the soil surface. The seeds and/or vegetative propagules are covered with 1.27 cm of a mixture of 50% topsoil and 50% of a mixture of Canadian sphagnum peat moss, vermiculite and a wetting agent. The pans are then placed on a capillary mat on a greenhouse bench and subirrigated as needed. After the plants reach the desired stage (9 to 14 days, 1 to 3 true leaf stage), each pan (except the control pans) is removed to a spraying chamber and sprayed by means of an atomizer, operating at a spray pressure of 170.3 kPa ([…]) at the application rates noted in Table D. In the spray solution is an amount of an emulsifying agent mixture (35% butylamine salt of dodecylbenzenesulfonic acid and 65% tall oil condensed with ethylene oxide in the ratio of 11 mols of ethylene oxide/mol of tall oil) to give a spray solution or suspension. The spray solution or suspension contains a sufficient amount of the candidate chemical in order to give application rates of the active ingredient corresponding to those shown in Table D below while applying a total amount of solution or suspension equivalent to 1870 L/Ha (200 gallons/acre). The pans are returned to the greenhouse and watered as before and the injury to the plants as compared to the control pans is observed at approximately 10-14 days (usually 11 days).
(§1) In the following Table D the legends used to identify the plant species are the same as those used in the preceding Table B.

[2] = system: Corn; assay: as above; parameters: scale not given here
Source text: (§2) Topsoil (silt loam) is sieved through a screen having 1.27 cm openings. […] This mixture is steam sterilized and then placed in aluminum pans 6.985 cm deep having ten holes in the bottom each 0.635 cm in diameter. The soil mixture is compacted to a depth of 1.27 cm. from the top of the pan. A predetermined number of seeds of each of several dicotyledonous and monocotyledonous annual plant species and/or vegetative propagules for the perennial plant species are placed on the soil and pressed into the soil surface. The seeds and/or vegetative propagules are covered with 1.27 cm of a mixture of 50% topsoil and 50% of a mixture of Canadian sphagnum peat moss, vermiculite and a wetting agent. The pans are then placed on a capillary mat on a greenhouse bench and subirrigated as needed.
as §1

[3] = system: Grft; assay: as above; parameters: scale not given here
Source text: as §2, §1

[4] = system: Cobu; assay: as above; parameters: scale not given here
Source text: as §2, §1

[5] = system: Lacg; assay: as above; parameters: scale not given here
Source text: as §2, §1

[6] = system: Whez; assay: as above; parameters: scale not given here
Source text: as §2, §1

[7] = system: Bygr; assay: as above; parameters: scale not given here
Source text: as §2, §1

[8] = system: Sobe; assay: as above; parameters: scale not given here
Source text: as §2, §1

[9] = system: Prmi; assay: as above; parameters: scale not given here
Source text: as §2, §1

[10] = system: Rice; assay: as above; parameters: scale not given here
Source text: as §2, §1

[11] = system: Morningglory; assay: Pre-emergent herbicidal activity (Table A); conditions: Ipomoea, pre-emergence, Mogl, 11.2 kg/ha, 10-14 days, read-out: herbicidal rating (% inhibition)
Method in brief: (§3)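 Percent inhibition per species, scored on a rating scale, after pre-emergent soil incorporation: test compound in acetone or water carrier mixed into cover soil, layered over seeded topsoil or vegetative propagules.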

[12] = system: Velvetleaf; assay: Pre-emergent herbicidal activity (Table A); conditions: Abutilon theophrasti, pre-emergence, Vele, 11.2 kg/ha, 10-14 days, read-out: herbicidal rating (% inhibition)
Method in brief: as §3

[13] = system: Cocklebur; assay: Pre-emergent herbicidal activity (Table A); conditions: Xanthium strumarium, pre-emergence, Cobu, 11.2 kg/ha, 10-14 days, read-out: herbicidal rating (% inhibition)
Method in brief: as §3

[14] = system: Barnyardgrass; assay: Pre-emergent herbicidal activity (Table A); conditions: Echinochloa crus-galli, pre-emergence, Bygr, 11.2 kg/ha, 10-14 days, read-out: herbicidal rating (% inhibition)
Method in brief: as §3

[15] = system: Yellow Nutsedge; assay: Pre-emergent herbicidal activity (Table A); conditions: Cyperus, pre-emergence, Yens, 11.2 kg/ha, 10-14 days, read-out: herbicidal rating (% inhibition)
Method in brief: as §3

[16] = system: Downy Brome; assay: Pre-emergent herbicidal activity (Table A); conditions: Bromus tectorum, pre-emergence, Dobr, 11.2 kg/ha, 10-14 days, read-out: herbicidal rating (% inhibition)
Method in brief: as §3

COC(=O)c1c(OC)nc(C(F)(F)F)c(C2=NCCCS2)c1CC(C)C [Compound 98, 3-pyridinecarboxylic acid, 5-(5,6-dihydro-4H-1,3-thiazin-2-yl)-2-methoxy-4-(2-methylpropyl)-6-(trifluoromethyl)-, methyl ester]
plant injury rating, Dobr ([1]; 0.0701 kg/ha): 0 | plant injury rating, Dobr ([1]; 0.2803 kg/ha): 0 | plant injury rating, Dobr ([1]; 1.1210 kg/ha): 0 | plant injury rating, Dobr ([1]; 5.6050 kg/ha): 0 | plant injury rating, Corn ([2]; 0.0701 kg/ha): 0 | plant injury rating, Corn ([2]; 0.2803 kg/ha): 0 | plant injury rating, Corn ([2]; 1.1210 kg/ha): 0 | plant injury rating, Corn ([2]; 5.6050 kg/ha): 2 | plant injury rating, Grft ([3]; 0.0701 kg/ha): 0 | plant injury rating, Grft ([3]; 0.2803 kg/ha): 0 | plant injury rating, Grft ([3]; 1.1210 kg/ha): 0 | plant injury rating, Grft ([3]; 5.6050 kg/ha): 1 | plant injury rating, Cobu ([4]; 0.0701 kg/ha): 0 | plant injury rating, Cobu ([4]; 0.2803 kg/ha): 1 | plant injury rating, Cobu ([4]; 1.1210 kg/ha): 1 | plant injury rating, Cobu ([4]; 5.6050 kg/ha): 2 | plant injury rating, Lacg ([5]; 0.0701 kg/ha): 0 | plant injury rating, Lacg ([5]; 0.2803 kg/ha): 2 | plant injury rating, Lacg ([5]; 1.1210 kg/ha): 3 | plant injury rating, Lacg ([5]; 5.6050 kg/ha): 3 | plant injury rating, Whez ([6]; 0.0701 kg/ha): 0 | plant injury rating, Whez ([6]; 0.2803 kg/ha): 0 | plant injury rating, Whez ([6]; 1.1210 kg/ha): 0 | plant injury rating, Whez ([6]; 5.6050 kg/ha): 0 | plant injury rating, Bygr ([7]; 0.0701 kg/ha): 0 | plant injury rating, Bygr ([7]; 0.2803 kg/ha): 0 | plant injury rating, Bygr ([7]; 1.1210 kg/ha): 0 | plant injury rating, Bygr ([7]; 5.6050 kg/ha): 0 | plant injury rating, Sobe ([8]; 0.0701 kg/ha): 0 | plant injury rating, Sobe ([8]; 0.2803 kg/ha): 0 | plant injury rating, Sobe ([8]; 1.1210 kg/ha): 0 | plant injury rating, Sobe ([8]; 5.6050 kg/ha): 2 | plant injury rating, Prmi ([9]; 0.0701 kg/ha): 0 | plant injury rating, Prmi ([9]; 0.2803 kg/ha): 1 | plant injury rating, Prmi ([9]; 5.6050 kg/ha): 2 | plant injury rating, Rice ([10]; 0.0701 kg/ha): 0 | plant injury rating, Rice ([10]; 0.2803 kg/ha): 0 | plant injury rating, Rice ([10]; 1.1210 kg/ha): 0 | plant injury rating, Rice ([10]; 5.6050 kg/ha): 0 | inhibition at 11200 g/ha [11]: 75 to 100% | inhibition at 11200 g/ha [12]: 75 to 100% | inhibition at 11200 g/ha [13]: 0 to 24% | inhibition at 11200 g/ha [14]: 75 to 100% | inhibition at 11200 g/ha [15]: 0 to 24% | inhibition at 11200 g/ha [16]: 75 to 100%

COC(=O)c1c(OC)nc(C(F)(F)F)c(C(=O)n2cccn2)c1CC1CC1 [Compound 116, 3-pyridinecarboxylic acid, 4-(cyclopropylmethyl)-2-methoxy-5-(1H-pyrazo1-1-ylcarbonyl)-6-(trifluoromethyl)-, methyl ester]
plant injury rating, Dobr ([1]; 0.0701 kg/ha): 0 | plant injury rating, Dobr ([1]; 0.2803 kg/ha): 0 | plant injury rating, Dobr ([1]; 1.1210 kg/ha): 0 | plant injury rating, Dobr ([1]; 5.6050 kg/ha): 0 | plant injury rating, Corn ([2]; 0.0701 kg/ha): 0 | plant injury rating, Corn ([2]; 0.2803 kg/ha): 0 | plant injury rating, Corn ([2]; 1.1210 kg/ha): 2 | plant injury rating, Corn ([2]; 5.6050 kg/ha): 2 | plant injury rating, Grft ([3]; 0.0701 kg/ha): 0 | plant injury rating, Grft ([3]; 0.2803 kg/ha): 0 | plant injury rating, Grft ([3]; 1.1210 kg/ha): 0 | plant injury rating, Grft ([3]; 5.6050 kg/ha): 1 | plant injury rating, Cobu ([4]; 0.0701 kg/ha): 0 | plant injury rating, Cobu ([4]; 0.2803 kg/ha): 1 | plant injury rating, Cobu ([4]; 1.1210 kg/ha): 2 | plant injury rating, Cobu ([4]; 5.6050 kg/ha): 2 | plant injury rating, Lacg ([5]; 0.0701 kg/ha): 2 | plant injury rating, Lacg ([5]; 0.2803 kg/ha): 2 | plant injury rating, Lacg ([5]; 1.1210 kg/ha): 2 | plant injury rating, Lacg ([5]; 5.6050 kg/ha): 2 | plant injury rating, Whez ([6]; 0.0701 kg/ha): 0 | plant injury rating, Whez ([6]; 0.2803 kg/ha): 0 | plant injury rating, Whez ([6]; 1.1210 kg/ha): 0 | plant injury rating, Whez ([6]; 5.6050 kg/ha): 0 | plant injury rating, Bygr ([7]; 0.0701 kg/ha): 0 | plant injury rating, Bygr ([7]; 0.2803 kg/ha): 0 | plant injury rating, Bygr ([7]; 1.1210 kg/ha): 0 | plant injury rating, Bygr ([7]; 5.6050 kg/ha): 1 | plant injury rating, Sobe ([8]; 0.0701 kg/ha): 1 | plant injury rating, Sobe ([8]; 0.2803 kg/ha): 1 | plant injury rating, Sobe ([8]; 1.1210 kg/ha): 2 | plant injury rating, Sobe ([8]; 5.6050 kg/ha): 2 | plant injury rating, Prmi ([9]; 0.0701 kg/ha): 0 | plant injury rating, Prmi ([9]; 0.2803 kg/ha): 0 | plant injury rating, Prmi ([9]; 1.1210 kg/ha): 0 | plant injury rating, Prmi ([9]; 5.6050 kg/ha): 0 | plant injury rating, Rice ([10]; 0.0701 kg/ha): 0 | plant injury rating, Rice ([10]; 0.2803 kg/ha): 0 | plant injury rating, Rice ([10]; 1.1210 kg/ha): 0 | plant injury rating, Rice ([10]; 5.6050 kg/ha): 0 | inhibition at 11200 g/ha [11]: 75 to 100% | inhibition at 11200 g/ha [12]: 75 to 100% | inhibition at 11200 g/ha [13]: 50 to 74% | inhibition at 11200 g/ha [14]: 75 to 100% | inhibition at 11200 g/ha [15]: 75 to 100% | inhibition at 11200 g/ha [16]: 75 to 100%
